Data on four compounds can be found in article PMC5564600 (Oncotarget, 2017).

Holding throughout (assay): biochemical
What all share (assay type): binding

The target of assay [1] is T1, panel of 442 kinases (Homo sapiens, UniProt Q9H2K8).
T1 construct: purchased Ambit Biosciences (scanMAXX KINOMEscan)
T1 sequence (Q9H2K8 1-898): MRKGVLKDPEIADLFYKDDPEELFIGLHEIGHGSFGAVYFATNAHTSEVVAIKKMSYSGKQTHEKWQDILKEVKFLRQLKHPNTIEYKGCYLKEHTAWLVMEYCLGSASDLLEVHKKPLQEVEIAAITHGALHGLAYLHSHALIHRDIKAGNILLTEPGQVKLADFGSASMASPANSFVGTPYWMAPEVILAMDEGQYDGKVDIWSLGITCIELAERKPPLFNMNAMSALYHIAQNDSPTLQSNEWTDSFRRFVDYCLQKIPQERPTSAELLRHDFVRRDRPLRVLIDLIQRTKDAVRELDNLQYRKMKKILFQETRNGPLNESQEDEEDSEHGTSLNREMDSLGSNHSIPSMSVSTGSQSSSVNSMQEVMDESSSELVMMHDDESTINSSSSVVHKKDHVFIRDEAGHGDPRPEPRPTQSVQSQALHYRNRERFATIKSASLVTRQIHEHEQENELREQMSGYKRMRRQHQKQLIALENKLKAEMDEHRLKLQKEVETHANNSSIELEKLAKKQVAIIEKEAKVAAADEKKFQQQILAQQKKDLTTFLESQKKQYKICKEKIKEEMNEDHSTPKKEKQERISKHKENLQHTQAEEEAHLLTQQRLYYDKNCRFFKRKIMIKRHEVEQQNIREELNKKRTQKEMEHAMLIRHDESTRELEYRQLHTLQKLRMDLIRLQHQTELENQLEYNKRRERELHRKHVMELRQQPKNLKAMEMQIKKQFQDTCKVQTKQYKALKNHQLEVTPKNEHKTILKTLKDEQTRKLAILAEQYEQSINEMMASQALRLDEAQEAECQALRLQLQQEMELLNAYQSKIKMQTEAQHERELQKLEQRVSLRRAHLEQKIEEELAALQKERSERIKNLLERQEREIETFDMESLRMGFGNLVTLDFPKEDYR
To be noted: kinase TAOK3; for remaining activity at 1 µM: read-out: TAOK3 (% of control at 1 µM).

Assay [2] addresses T2, panel of 442 kinases (Homo sapiens, UniProt P51956).
T2 construct: purchased Ambit Biosciences (scanMAXX KINOMEscan)
T2 sequence (P51956 1-506): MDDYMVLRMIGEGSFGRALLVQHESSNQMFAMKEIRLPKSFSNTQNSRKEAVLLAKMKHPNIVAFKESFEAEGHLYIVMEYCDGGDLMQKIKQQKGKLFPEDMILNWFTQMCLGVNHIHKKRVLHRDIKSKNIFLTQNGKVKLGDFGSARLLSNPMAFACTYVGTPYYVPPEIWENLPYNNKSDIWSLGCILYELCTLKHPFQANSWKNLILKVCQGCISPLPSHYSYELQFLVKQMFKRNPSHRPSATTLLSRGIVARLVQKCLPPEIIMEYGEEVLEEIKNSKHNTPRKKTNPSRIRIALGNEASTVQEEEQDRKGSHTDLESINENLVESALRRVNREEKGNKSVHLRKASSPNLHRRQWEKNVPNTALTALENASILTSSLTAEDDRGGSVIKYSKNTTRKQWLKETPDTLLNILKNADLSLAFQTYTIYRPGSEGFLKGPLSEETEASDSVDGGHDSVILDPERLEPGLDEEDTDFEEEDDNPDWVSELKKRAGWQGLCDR
To be noted: kinase NEK3; for remaining activity at 1 µM: read-out: % of control at 1 µM.

In assay [3] the target is T3, panel of 442 kinases (Homo sapiens, UniProt Q05655).
T3 construct: purchased Ambit Biosciences (scanMAXX KINOMEscan)
Particulars: kinase PRKCD; for remaining activity at 1 µM: read-out: PRKCD (% of control at 1 µM).

For assay [4], the target named is T4, panel of 442 kinases (Homo sapiens, UniProt Q9UBE8).
T4 construct: purchased Ambit Biosciences (scanMAXX KINOMEscan)
T4 sequence (Q9UBE8 1-527): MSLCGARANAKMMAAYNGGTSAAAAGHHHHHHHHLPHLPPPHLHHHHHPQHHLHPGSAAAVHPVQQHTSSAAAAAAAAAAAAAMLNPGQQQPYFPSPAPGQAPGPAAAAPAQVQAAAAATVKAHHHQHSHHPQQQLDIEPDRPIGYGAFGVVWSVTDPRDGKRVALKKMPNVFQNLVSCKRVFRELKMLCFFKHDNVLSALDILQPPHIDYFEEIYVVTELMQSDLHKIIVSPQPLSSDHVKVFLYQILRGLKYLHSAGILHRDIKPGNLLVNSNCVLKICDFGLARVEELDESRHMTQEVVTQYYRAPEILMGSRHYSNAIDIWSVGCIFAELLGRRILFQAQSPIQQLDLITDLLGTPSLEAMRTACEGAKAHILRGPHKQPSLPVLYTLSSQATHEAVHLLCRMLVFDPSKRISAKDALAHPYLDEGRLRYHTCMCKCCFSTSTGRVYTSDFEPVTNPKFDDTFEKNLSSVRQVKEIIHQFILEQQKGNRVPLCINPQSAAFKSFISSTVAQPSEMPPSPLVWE
Particulars: kinase NLK; for remaining activity at 1 µM: read-out: % of control at 1 µM.

Assay [5] has as its target T5, panel of 442 kinases (Homo sapiens, UniProt P49761).
T5 construct: purchased Ambit Biosciences (scanMAXX KINOMEscan)
Particulars: CLK3; for remaining activity at 1 µM: read-out: % of control at 1 µM.

In assay [6] the target is T6, panel of 442 kinases (Homo sapiens, UniProt Q9H3Y6).
T6 construct: purchased Ambit Biosciences (scanMAXX KINOMEscan)
Particulars: kinase SRMS; for remaining activity at 1 µM: read-out: SRMS (% of control at 1 µM).

The target in assay [7] is T7, panel of 442 kinases (Homo sapiens, UniProt P49840).
T7 construct: purchased Ambit Biosciences (scanMAXX KINOMEscan)
Particulars: kinase GSK3A; for remaining activity at 1 µM: read-out: % of control at 1 µM.

Assay [8] deals with T8, panel of 442 kinases (Homo sapiens, UniProt Q8N5S9).
T8 construct: purchased Ambit Biosciences (scanMAXX KINOMEscan)
To be noted: CAMKK1; for remaining activity at 1 µM: read-out: % of control at 1 µM.

For assay [9], the target named is T9, panel of 442 kinases (Homo sapiens, UniProt P42338).
T9 construct: purchased Ambit Biosciences (scanMAXX KINOMEscan)
Particulars: kinase PIK3CB; 1 µM; read-out: % of control at 1 µM.

[10] abbreviates: 10 µM, read-out: % of control at 10 µM.

T5 sequence (P49761 whole entry): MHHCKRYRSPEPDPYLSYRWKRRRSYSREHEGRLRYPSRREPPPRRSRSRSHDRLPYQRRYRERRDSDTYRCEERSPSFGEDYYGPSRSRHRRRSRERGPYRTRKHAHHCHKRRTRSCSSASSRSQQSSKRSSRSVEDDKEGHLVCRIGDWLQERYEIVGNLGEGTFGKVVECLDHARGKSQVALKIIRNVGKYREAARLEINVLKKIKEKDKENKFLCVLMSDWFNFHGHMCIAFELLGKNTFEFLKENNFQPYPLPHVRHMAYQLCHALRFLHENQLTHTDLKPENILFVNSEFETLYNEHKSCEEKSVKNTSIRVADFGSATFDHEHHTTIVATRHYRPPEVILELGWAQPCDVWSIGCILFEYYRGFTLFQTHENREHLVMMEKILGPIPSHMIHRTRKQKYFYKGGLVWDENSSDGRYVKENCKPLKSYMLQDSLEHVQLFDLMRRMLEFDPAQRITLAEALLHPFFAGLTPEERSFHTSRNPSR
T8 sequence (Q8N5S9 whole entry): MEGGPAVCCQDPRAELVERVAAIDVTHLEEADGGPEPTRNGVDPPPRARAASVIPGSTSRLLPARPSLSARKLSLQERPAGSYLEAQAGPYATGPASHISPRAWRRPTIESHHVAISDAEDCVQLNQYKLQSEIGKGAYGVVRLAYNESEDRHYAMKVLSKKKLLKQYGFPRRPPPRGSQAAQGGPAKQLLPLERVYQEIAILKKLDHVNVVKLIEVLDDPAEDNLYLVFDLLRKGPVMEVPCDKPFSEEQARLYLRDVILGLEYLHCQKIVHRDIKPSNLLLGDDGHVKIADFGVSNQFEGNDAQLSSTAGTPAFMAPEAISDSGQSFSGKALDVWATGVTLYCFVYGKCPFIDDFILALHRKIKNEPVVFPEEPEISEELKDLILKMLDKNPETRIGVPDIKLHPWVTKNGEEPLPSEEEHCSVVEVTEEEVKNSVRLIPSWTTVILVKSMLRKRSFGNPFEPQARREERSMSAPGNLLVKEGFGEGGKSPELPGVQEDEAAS
T3 sequence (Q05655 whole entry): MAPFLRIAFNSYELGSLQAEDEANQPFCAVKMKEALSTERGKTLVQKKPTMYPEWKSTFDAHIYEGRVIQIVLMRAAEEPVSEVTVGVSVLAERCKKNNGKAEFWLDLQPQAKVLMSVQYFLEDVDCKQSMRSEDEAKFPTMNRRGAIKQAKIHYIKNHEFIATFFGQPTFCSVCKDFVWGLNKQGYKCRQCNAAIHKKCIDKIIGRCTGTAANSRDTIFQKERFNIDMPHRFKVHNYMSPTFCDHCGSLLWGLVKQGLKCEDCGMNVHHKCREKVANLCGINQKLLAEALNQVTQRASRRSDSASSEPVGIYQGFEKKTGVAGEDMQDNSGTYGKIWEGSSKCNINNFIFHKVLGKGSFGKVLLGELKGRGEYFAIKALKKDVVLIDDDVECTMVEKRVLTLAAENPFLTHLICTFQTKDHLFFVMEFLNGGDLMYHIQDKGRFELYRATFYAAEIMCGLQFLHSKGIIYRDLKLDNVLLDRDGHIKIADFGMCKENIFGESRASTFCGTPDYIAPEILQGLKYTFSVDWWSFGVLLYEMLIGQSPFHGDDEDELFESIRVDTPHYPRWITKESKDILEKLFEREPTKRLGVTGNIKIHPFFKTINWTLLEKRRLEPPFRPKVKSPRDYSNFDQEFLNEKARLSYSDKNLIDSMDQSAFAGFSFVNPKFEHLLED
T7 sequence (P49840 whole entry): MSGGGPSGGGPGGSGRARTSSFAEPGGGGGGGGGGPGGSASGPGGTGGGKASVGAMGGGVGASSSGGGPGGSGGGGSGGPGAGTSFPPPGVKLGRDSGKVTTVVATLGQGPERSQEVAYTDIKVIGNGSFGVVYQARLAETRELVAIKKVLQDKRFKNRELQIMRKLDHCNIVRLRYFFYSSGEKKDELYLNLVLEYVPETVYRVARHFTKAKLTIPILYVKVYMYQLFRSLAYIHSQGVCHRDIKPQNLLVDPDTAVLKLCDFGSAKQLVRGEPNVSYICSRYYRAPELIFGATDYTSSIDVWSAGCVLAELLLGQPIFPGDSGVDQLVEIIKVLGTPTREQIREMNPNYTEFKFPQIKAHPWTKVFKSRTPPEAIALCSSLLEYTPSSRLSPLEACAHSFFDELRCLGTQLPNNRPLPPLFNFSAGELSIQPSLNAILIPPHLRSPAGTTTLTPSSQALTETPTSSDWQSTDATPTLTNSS
T6 sequence (Q9H3Y6 whole entry): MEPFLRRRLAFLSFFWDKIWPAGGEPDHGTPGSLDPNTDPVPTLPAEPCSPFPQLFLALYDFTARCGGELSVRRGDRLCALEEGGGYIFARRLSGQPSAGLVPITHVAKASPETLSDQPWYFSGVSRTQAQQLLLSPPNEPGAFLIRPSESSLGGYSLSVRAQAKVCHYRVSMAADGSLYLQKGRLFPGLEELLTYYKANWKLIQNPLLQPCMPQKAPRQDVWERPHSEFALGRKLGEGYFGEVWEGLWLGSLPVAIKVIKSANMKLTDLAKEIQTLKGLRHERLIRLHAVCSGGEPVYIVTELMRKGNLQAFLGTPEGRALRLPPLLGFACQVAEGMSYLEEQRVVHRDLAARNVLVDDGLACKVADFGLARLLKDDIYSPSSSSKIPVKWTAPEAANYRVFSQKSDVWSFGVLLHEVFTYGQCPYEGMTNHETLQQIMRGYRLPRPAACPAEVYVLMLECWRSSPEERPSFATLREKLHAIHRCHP
T9 sequence (P42338 whole entry): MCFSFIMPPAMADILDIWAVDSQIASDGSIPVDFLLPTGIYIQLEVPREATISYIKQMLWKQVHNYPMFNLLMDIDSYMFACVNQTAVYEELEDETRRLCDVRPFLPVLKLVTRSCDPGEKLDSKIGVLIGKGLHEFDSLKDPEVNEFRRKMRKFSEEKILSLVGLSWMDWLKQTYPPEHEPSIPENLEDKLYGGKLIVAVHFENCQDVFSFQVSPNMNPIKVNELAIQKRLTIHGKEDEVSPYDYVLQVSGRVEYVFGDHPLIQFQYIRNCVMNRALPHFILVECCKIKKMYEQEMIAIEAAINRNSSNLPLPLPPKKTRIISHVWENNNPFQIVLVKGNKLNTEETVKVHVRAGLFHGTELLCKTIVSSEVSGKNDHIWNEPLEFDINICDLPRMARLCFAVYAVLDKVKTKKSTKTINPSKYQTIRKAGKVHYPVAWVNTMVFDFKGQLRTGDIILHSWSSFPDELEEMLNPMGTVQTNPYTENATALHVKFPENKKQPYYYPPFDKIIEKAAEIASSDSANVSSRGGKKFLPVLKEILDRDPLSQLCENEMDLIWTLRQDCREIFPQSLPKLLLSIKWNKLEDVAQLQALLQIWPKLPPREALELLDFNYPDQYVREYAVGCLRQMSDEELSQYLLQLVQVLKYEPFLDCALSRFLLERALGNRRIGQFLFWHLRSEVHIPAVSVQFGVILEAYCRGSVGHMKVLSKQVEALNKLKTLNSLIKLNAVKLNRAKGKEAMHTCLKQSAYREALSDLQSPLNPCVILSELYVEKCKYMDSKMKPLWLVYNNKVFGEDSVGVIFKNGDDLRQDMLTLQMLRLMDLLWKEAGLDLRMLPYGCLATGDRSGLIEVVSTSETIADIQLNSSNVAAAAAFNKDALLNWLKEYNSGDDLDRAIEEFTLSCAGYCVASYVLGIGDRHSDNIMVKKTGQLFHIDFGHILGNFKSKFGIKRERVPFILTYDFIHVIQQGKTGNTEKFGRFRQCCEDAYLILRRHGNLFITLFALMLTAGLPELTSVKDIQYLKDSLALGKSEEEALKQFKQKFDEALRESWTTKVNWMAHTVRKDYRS

Consider `Nc1cc(C(F)(F)F)c(-c2cc(N3CCOCC3)nc(N3CCOCC3)n2)cn1` [Buparlisib], for which the remaining activity at 1 µM was found to be 89% in assay [1]; 99% in assay [2]; 100% in [3]; 93% in [4]; 100% in assay [5]; 100% in assay [6]. Further, the remaining activity at 1 µM in assay [7] amounted to 93%; in [8] it was 100%. Also, the remaining activity at 10 µM in [1] (10 µM, read-out: TAOK3 (% of control at 10 µM)) was determined as 78%; in assay [2] (setting [10]), 100%; in [3] (10 µM, read-out: PRKCD (% of control at 10 µM)) it was 100%; in assay [4] (setting [10]), 100%; in assay [5] (setting [10]), 94%; in assay [6] (10 µM, read-out: SRMS (% of control at 10 µM)) it was 100%. For the same compound, the remaining activity at 10 µM in assay [7] (setting [10]) and in assay [8] (setting [10]) was 100% in each case.
Regarding `Cn1c(=O)n(-c2ccc(C(C)(C)C#N)cc2)c2c3cc(-c4cnc5ccccc5c4)ccc3ncc21` [Dactolisib, 2-methyl-2-[4-(3-methyl-2-oxo-8-quinolin-3-yl-2,3-dihydroimidazo[4,5-c]quinolin-1-yl)-phenyl] propionitrile], the remaining activity at 1 µM in [1] amounted to 100%; in assay [2] it was 78%; in assay [3], 86%; in assay [4], 81%; in assay [9], 64%; in assay [5] it was 50%. Moreover, the remaining activity at 1 µM in assay [6] worked out at 88%; in assay [8], 79%.
In the case of `COc1ncc(-c2ccc3nccc(-c4ccnnc4)c3c2)cc1NS(=O)(=O)c1ccc(F)cc1F` [Omipalisib], the remaining activity at 1 µM was determined as 100% in assay [1]; 93% in [2]; 74% in assay [3]; 95% in assay [4]; 0% in assay [9]; 93% in assay [5]. The remaining activity at 1 µM in [6] was found to be 90%; in assay [7], 100%; in assay [8], 100%.
As to `FC(F)c1nc2ccccc2n1-c1nc(N2CCOCC2)nc(N2CCOCC2)n1` [ZSTK474, 2-(difluoromethyl)-1-[4,6-di(4-morpholinyl)-1,3,5-triazin-2-yl]-1H-benzimidazole], the remaining activity at 1 µM in assay [1] was determined as 92%; in assay [2] it was 73%; in assay [3], 100%; in assay [4], 84%; in assay [9] it was 0%; in assay [5], 100%. The remaining activity at 1 µM in [6] was 80%; in [7], 100%; in assay [8], 100%.
